Reference: patent publication US20250320213A1, “Nitrogen-Containing Heterocyclic Compounds” (Pfizer Inc., priority 2024, published 2025)

Key:
[1] = tested on: CCL17 secretion in peripheral human whole blood; experiment: Human Whole Blood (HWB) CCL17 TR-FRET Assay (IL-13 stimulated CCL17 secretion); format: cell-based; details: inhibition of CCL17 secretion in human whole blood, 10 ng/mL IL13, 48 hours
How it was run: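 TR-FRET sandwich immunoassay (665/615 nm ratio) read CCL17 in serum from heparinized whole blood after 16 h RT detection. Blood was exposed to compound for 2 h at 37 °C, then to 10 ng/mL IL-13 (final) for 48 h. IC50 from 11-point, 3-fold titrations in duplicate.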

STAT6 = biological target: T1, STAT6 (Homo sapiens, UniProt P42226); experiment: STAT6 Reporter Luciferase Assay (IL-13 stimulated HaCaT keratinocyte NanoLuc reporter cells); format: cell-based; details: STAT6 NanoLuc luciferase reporter, IL-13 stimulated HaCaT keratinocyte cells; read-out: Reporter EC50
T1 construct: stably transfected HaCaT keratinocyte cell line, which expresses NanoLuc luciferase reporter gene under the transcriptional control of the STAT6 responsive promoter; endogenous in cells; host or cells: HaCaT keratinocyte reporter cell line (stably transfected with a NanoLuc reporter)
T1 sequence (P42226 1-847): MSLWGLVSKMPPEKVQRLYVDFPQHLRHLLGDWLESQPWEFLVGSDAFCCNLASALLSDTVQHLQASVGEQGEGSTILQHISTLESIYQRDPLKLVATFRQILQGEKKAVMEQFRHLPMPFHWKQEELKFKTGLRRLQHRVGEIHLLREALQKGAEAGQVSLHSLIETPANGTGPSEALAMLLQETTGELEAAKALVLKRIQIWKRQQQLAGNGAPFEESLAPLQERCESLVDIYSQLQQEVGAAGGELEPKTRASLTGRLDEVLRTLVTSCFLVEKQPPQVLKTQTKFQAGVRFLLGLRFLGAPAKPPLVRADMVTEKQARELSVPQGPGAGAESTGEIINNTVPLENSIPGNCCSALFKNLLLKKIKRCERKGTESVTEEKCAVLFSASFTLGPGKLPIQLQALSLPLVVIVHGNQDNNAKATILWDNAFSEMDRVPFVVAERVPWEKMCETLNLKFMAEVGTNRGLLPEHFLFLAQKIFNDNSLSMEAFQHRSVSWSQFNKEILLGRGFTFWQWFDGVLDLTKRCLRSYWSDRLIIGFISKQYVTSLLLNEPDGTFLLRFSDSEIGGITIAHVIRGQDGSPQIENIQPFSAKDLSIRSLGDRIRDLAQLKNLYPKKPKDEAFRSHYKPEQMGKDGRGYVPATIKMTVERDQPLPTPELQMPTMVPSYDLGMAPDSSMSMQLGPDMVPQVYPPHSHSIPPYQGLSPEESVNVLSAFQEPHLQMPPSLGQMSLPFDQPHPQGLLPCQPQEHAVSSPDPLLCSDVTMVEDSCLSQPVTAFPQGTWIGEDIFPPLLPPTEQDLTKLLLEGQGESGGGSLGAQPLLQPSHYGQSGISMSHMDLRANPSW
How it was run: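 IL-13 (0.12 nM, 4 h) stimulated STAT6 reporter activity in HaCaT cells after a 2 h compound pre-incubation; NanoLuc signal was measured.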

Structure (SMILES)	IC50 ([1]; Homo sapiens, 48 h) [µM]	EC50 (STAT6) [µM]	IC50 [1] [µM]
CC(C)n1nc(C(=O)NCc2ccc(NC(=O)N(C)C)cc2)c2c1CCN(c1ccc(-n3ccccc3=O)cn1)C2 [Example 108, N-(4-(3,3-dimethylureido)benzyl)-1-isopropyl-5-(2-oxo-2H-[1,3′-bipyridin]-6′-yl)-4,5,6,7-tetrahydro-1H-pyrazolo[4,3-c]pyridine-3-carboxamide]	0.536	0.03	
CC(C)n1nc(C(=O)NCc2ccc(NC(=O)N(C)C)cc2)c2c1CCN(c1ccc(N3C(=O)OCC3CO)cn1)C2 (stereo not shown) [Example 110, N-(4-(3,3-dimethylureido)benzyl)-5-(5-(4-(hydroxymethyl)-2-oxooxazolidin-3-yl)pyridin-2-yl)-1-isopropyl-4,5,6,7-tetrahydro-1H-pyrazolo[4,3-c]pyridine-3-carboxamide]	2.09	0.523	
CC(C)n1nc(C(=O)NCc2ccc(NC(=O)N(C)C)cc2)c2c1C[C@@H](C)N(c1ccc(C(=O)N(C)C)cn1)C2 [Example 114, (R)-5-(5-(dimethylcarbamoyl)pyridin-2-yl)-N-(4-(3,3-dimethylureido)benzyl)-1-isopropyl-6-methyl-4,5,6,7-tetrahydro-1H-pyrazolo[4,3-c]pyridine-3-carboxamide]	0.211	0.02	
CCn1nc(C(=O)NCc2ccc(NC(=O)N(C)C)cc2)c2c1[C@@H](C)CN(c1ncc(C(=O)N(C)C)cn1)C2 [Example 125, (S)-5-(5-(Dimethylcarbamoyl)pyrimidin-2-yl)-N-(4-(3,3-dimethylureido)benzyl)-1-ethyl-7-methyl-4,5,6,7-tetrahydro-1H-pyrazolo[4,3-c]pyridine-3-carboxamide]	0.004	0.001	
CC(C)n1nc(C(=O)NCc2ccc(NC(=O)N(C)C)cc2)c2c1[C@@H](C)CN(c1ncc(C(=O)N(C)C)cn1)C2 [Example 127]	0.004	0.001	
CC(C)n1nc(C(=O)NCc2ccc(NC(=O)N3CCCC3)cc2)c2c1CCN(c1ccc(C(=O)N(C)C)cn1)C2 [Example 136, 5-(5-(Dimethylcarbamoyl)pyridin-2-yl)-1-isopropyl-N-(4-(pyrrolidine-1-carboxamido)benzyl)-4,5,6,7-tetrahydro-1H-pyrazolo[4,3-c]pyridine-3-carboxamide]		0.012	0.196
CC(C)n1nc(C(=O)NCc2ccc(NC(=O)N(C)C)cc2)c2c1CCN(c1ccc(C(N)=O)cn1)C2 [Example 137, 5-(5-carbamoylpyridin-2-yl)-N-(4-(3,3-dimethylureido)benzyl)-1-isopropyl-4,5,6,7-tetrahydro-1H-pyrazolo[4,3-c]pyridine-3-carboxamide]	9.69	1.86	
CC(C)n1nc(C(=O)NCc2ccc(NC(=O)N3C[C@@H](F)[C@@H](F)C3)cc2)c2c1CCN(c1ccc(C(=O)N(C)C)cn1)C2 [Example 140, N-(4-((3R,4S)-3,4-difluoropyrrolidine-1-carboxamido)benzyl)-5-(5-(dimethylcarbamoyl)pyridin-2-yl)-1-isopropyl-4,5,6,7-tetrahydro-1H-pyrazolo[4,3-c]pyridine-3-carboxamide]	0.144	0.012	

More lines, main results first:

IC50 ([1]; Homo sapiens, 48 h) [µM]	EC50 (STAT6) [µM]	Structure (SMILES)	IC50 [1] [µM]
0.049	0.008	CN(C)C(=O)Nc1ccc(CNC(=O)c2nn(C)c3c2CN(c2ccc(C(=O)N(C)C)cn2)CC32CC2)cc1 [Example 106, 5′-(5-(dimethylcarbamoyl)pyridin-2-yl)-N-(4-(3,3-dimethylureido)benzyl)-1′-methyl-1′,4′,5′,6′-tetrahydrospiro[cyclopropane-1,7′-pyrazolo[4,3-c]pyridine]-3′-carboxamide]	
0.219	0.013	CC(C)n1nc(C(=O)NCc2ccc(NC(=O)N(C)C)cc2)c2c1CCN(c1ccc(N3CCOC3=O)cn1)C2 [Example 107, N-(4-(3,3-dimethylureido)benzyl)-1-isopropyl-5-(5-(2-oxooxazolidin-3-yl)pyridin-2-yl)-4,5,6,7-tetrahydro-1H-pyrazolo[4,3-c]pyridine-3-carboxamide]	
> 30	0.117	CC(C)n1nc(C(=O)NCc2ccc(NC(=O)N(C)C)cc2)c2c1CCN(c1ccc(N3C(=O)C4CCC3C4)cn1)C2 (stereo not shown) [Example 109, N-(4-(3,3-dimethylureido)benzyl)-1-isopropyl-5-(5-(3-oxo-2-azabicyclo[2.2.1]heptan-2-yl)pyridin-2-yl)-4,5,6,7-tetrahydro-1H-pyrazolo[4,3-c]pyridine-3-carboxamide]	
0.004	0.001	C[C@H]1CN(c2ncc(C(=O)N(C)C)cn2)Cc2c(C(=O)NCc3ccc(NC(=O)N(C)C)cc3)nn(CC3CC3)c21 [Example 120, (S)-1-(cyclopropylmethyl)-5-(5-(dimethylcarbamoyl)pyrimidin-2-yl)-N-(4-(3,3-dimethylureido)benzyl)-7-methyl-4,5,6,7-tetrahydro-1H-pyrazolo[4,3-c]pyridine-3-carboxamide]	
0.005	0.001	CCn1nc(C(=O)NCc2ccc(NC(=O)N(C)C)cc2)c2c1[C@@H](C)CN(c1ccc(C(=O)N(C)C)cn1)C2 [Example 126, (S)-5-(5-(Dimethylcarbamoyl)pyridin-2-yl)-N-(4-(3,3-dimethylureido)benzyl)-1-ethyl-7-methyl-4,5,6,7-tetrahydro-1H-pyrazolo[4,3-c]pyridine-3-carboxamide]	
0.009	0.001	CCn1nc(C(=O)NCc2ccc(NC(=O)N(C)C)cc2)c2c1[C@@H](C)CN(c1ccc(N3CCCC3=O)cn1)C2 [Example 129, (S)-N-(4-(3,3-dimethylureido)benzyl)-1-ethyl-7-methyl-5-(5-(2-oxopyrrolidin-1-yl)pyridin-2-yl)-4,5,6,7-tetrahydro-1H-pyrazolo[4,3-c]pyridine-3-carboxamide]	
0.0036	0.0002	CC(C)n1nc(C(=O)NCc2ccc(NC(=O)N3CCN(C)CC3)cc2)c2c1[C@@H](C)CN(c1ccc(C(=O)N(C)C)cc1)C2 [Example 132, (S)-5-(4-(Dimethylcarbamoyl)phenyl)-1-isopropyl-7-methyl-N-(4-(4-methylpiperazine-1-carboxamido)benzyl)-4,5,6,7-tetrahydro-1H-pyrazolo[4,3-c]pyridine-3-carboxamide]	
0.048	0.028	CC(C)n1nc(C(=O)NCc2ccc(NC(N)=O)cc2)c2c1CCN(c1ccc(C(=O)N(C)C)cn1)C2 [Example 133, 5-(5-(dimethylcarbamoyl)pyridin-2-yl)-1-isopropyl-N-(4-ureidobenzyl)-4,5,6,7-tetrahydro-1H-pyrazolo[4,3-c]pyridine-3-carboxamide]	
0.046	0.007	CNC(=O)Nc1ccc(CNC(=O)c2nn(C(C)C)c3c2CN(c2ccc(C(=O)N(C)C)cn2)CC3)cc1 [Example 134, 5-(5-(dimethylcarbamoyl)pyridin-2-yl)-1-isopropyl-N-(4-(3-methylureido)benzyl)-4,5,6,7-tetrahydro-1H-pyrazolo[4,3-c]pyridine-3-carboxamide]	
1.27	0.136	CNC(=O)c1ccc(N2CCc3c(c(C(=O)NCc4ccc(NC(=O)N(C)C)cc4)nn3C(C)C)C2)nc1 [Example 135, N-(4-(3,3-dimethylureido)benzyl)-1-isopropyl-5-(5-(methylcarbamoyl)pyridin-2-yl)-4,5,6,7-tetrahydro-1H-pyrazolo[4,3-c]pyridine-3-carboxamide]	
1.14	0.248	CC(C)n1nc(C(=O)NCc2ccc(NC(=O)N(C)C)cc2)c2c1CCN(c1ccc(NS(C)(=O)=O)cn1)C2 [Example 138, N-(4-(3,3-dimethylureido)benzyl)-1-isopropyl-5-(5-(methylsulfonamido)pyridin-2-yl)-4,5,6,7-tetrahydro-1H-pyrazolo[4,3-c]pyridine-3-carboxamide]	
0.007	0.002	CC(C)n1nc(C(=O)NCc2ccc(NC(=O)N(C)C)cc2)c2c1C[C@H](C)N(c1ccc(C(=O)N(C)C)cn1)C2 [Example 139, (S)-5-(5-(dimethylcarbamoyl)pyridin-2-yl)-N-(4-(3,3-dimethylureido)benzyl)-1-isopropyl-6-methyl-4,5,6,7-tetrahydro-1H-pyrazolo[4,3-c]pyridine-3-carboxamide]	
